This note sets out measurements from patent US20120183579A1, “COMPOUNDS FOR INFLAMMATION AND IMMUNE-RELATED USES” (Synta Pharmaceuticals Corp., priority 2008, published 2012).

The experiment concerns IL-2. Description: Inhibition of IL-2 production (Jurkat cells activated with PHA, ELISA). As to conditions: Jurkat/PHA/1% FBS. In kind it is cell-based. The protocol:
Jurkat cells were placed in a 96 well plate (0.5 million cells per well in 1% FBS medium), and then a test compound of this invention was added at different concentrations. After 10 minutes, the cells were activated with PHA (final concentration 2.5 μg/mL) and incubated for 20 hours at 37° C. under 5% CO2. The final volume was 200 μL. Following incubation, the cells were centrifuged, and the supernatants collected and stored at −70° C. prior to assaying for IL-2 production. A commercial ELISA kit (IL-2 Eli-pair, Diaclone Research, Besancon, France) was used to detect production of IL-2, from which dose response curves were obtained. The IC50 value was calculated as the concentration at which 50% of maximum IL-2 production after stimulation was inhibited versus a non-stimulation control.
In general terms: An ELISA detects its analyte on a solid surface through an enzyme-linked reagent.

Setting [1] is: Homo sapiens, Jurkat, numeric values.

Counter-ions that a name gives are not always drawn.

Turning to `CC1=C(c2ccc(NC(=O)c3c(F)cccc3F)cc2)CN(c2ccccn2)CC1` [Compound 33, 2,6-difluoro-N-(4-(4-methyl-1-(pyridin-2-yl)-1,2,5,6-tetrahydropyridin-3-yl)phenyl)benzamide], the IC50 (in general, the concentration needed to halve the response being measured) under setting [1] stood at 22 nM.
Consider `CC1=C(c2ccc(NC(=O)c3c(C)cccc3F)cc2)CN(c2nnn(C)n2)CC1` [Compound 45, 2-fluoro-6-methyl-N-(4-(4-methyl-1-(2-methyl-2H-tetrazol-5-yl)-1,2,5,6-tetrahydropyridin-3-yl)phenyl) benzamide], for which the midpoint of inhibition under setting [1], the IC50, lay at 33 nM.
In the case of `CC1=C(c2ccc(NC(=O)c3cccc(F)c3C)nc2)CN(c2nnn(C)n2)CC1` [Compound 37, 3-fluoro-2-methyl-N-(5-(4-methyl-1-(2-methyl-2H-tetrazol-5-yl)-1,2,5,6-tetrahydropyridin-3-yl)pyridin-2-yl) benzamide], the IC50 under setting [1] was 24 nM.
Consider `CC1=C(c2cnc(NC(=O)c3ccccc3Cl)cn2)CN(c2nccnc2Cl)CC1` [Compound 35, 2-chloro-N-(5-(1-(3-chloropyrazin-2-yl)-4-methyl-1,2,5,6-tetrahydropyridin-3-yl)pyrazin-2-yl)benzamide], for which the IC50 under setting [1] is 23 nM.
On the same count and under the same terms, to `CCc1cnc(N2CCC(C)=C(c3cnc(NC(=O)c4c(F)cccc4F)cn3)C2)s1` [Compound 47, N-(5-(1-(5-ethylthiazol-2-yl)-4-methyl-1,2,5,6-tetrahydropyridin-3-yl)pyrazin-2-yl)-2,6-difluorobenzamide hydrochloride] belongs 35 nM; to `CC1=C(c2ccc(NC(=O)c3c(F)cccc3F)cc2)CN(c2nnn(C)n2)CC1` [Compound 20, 2,6-difluoro-N-(4-(4-methyl-1-(2-methyl-2H-tetrazol-5-yl)-1,2,5,6-tetrahydropyridin-3-yl)phenyl)benzamide], 52 nM.
On the same count and under the same terms, to `CC1=C(c2cnc(NC(=O)c3ccc(F)cc3F)cn2)CN(c2nccs2)CC1` [Compound 22, 2,4-difluoro-N-(5-(4-methyl-1-(thiazol-2-yl)-1,2,5,6-tetrahydropyridin-3-yl)pyrazin-2-yl)benzamide] belongs 10 nM; to `COc1cc(F)c(C(=O)Nc2cnc(C3=C(C)CCN(c4ncccc4F)C3)cn2)c(F)c1` [Compound 60, 2,6-difluoro-N-(5-(1-(3-fluoropyridin-2-yl)-4-methyl-1,2,5,6-tetrahydropyridin-3-yl)pyrazin-2-yl)-4-methoxybenzamide], 46 nM; to `CC1=C(c2ccc(NC(=O)c3cc(F)ccc3C)nc2)CN(c2nnn(C)n2)CC1` [Compound 53, 5-fluoro-2-methyl-N-(5-(4-methyl-1-(2-methyl-2H-tetrazol-5-yl)-1,2,5,6-tetrahydropyridin-3-yl)pyridin-2-yl) benzamide], 40 nM.
On the same count and under the same terms, to `CC1=C(c2ccc(NC(=O)c3ccncc3Cl)cc2)CN(c2nnn(C)n2)CC1` [Compound 27, 3-chloro-N-(4-(4-methyl-1-(2-methyl-2H-tetrazol-5-yl)-1,2,5,6-tetrahydropyridin-3-yl)phenyl)isonicotinamide] belongs 19 nM.
`CC1=C(c2cnc(NC(=O)c3c(F)cccc3F)cn2)CN(c2ncccc2O)CC1` [Compound 24, 2,6-difluoro-N-(5-(1-(3-hydroxypyridin-2-yl)-4-methyl-1,2,5,6-tetrahydropyridin-3-yl)pyrazin-2-yl)benzamide] displayed an IC50 under setting [1] of 14 nM.
Regarding `CC1=C(c2ccc(NC(=O)c3cnccc3C)cc2)CN(c2ncccc2F)CC1` [Compound 36, N-(4-(1-(3-fluoropyridin-2-yl)-4-methyl-1,2,5,6-tetrahydropyridin-3-yl)phenyl)-4-methylnicotinamide], the IC50 under setting [1] stood at 24 nM.
`Cn1nnc(N2CCC(Cl)=C(c3ccc(NC(=O)c4c(F)cccc4F)cc3)C2)n1` [Compound 34, N-(4-(4-chloro-1-(2-methyl-2H-tetrazol-5-yl)-1,2,5,6-tetrahydropyridin-3-yl)phenyl)-2,6-difluorobenzamide] had an IC50 under setting [1] of 22 nM.
As for `CC1=C(c2cnc(NC(=O)c3c(F)cccc3F)cn2)CN(c2nc(-c3cccnc3)cs2)CC1` [Compound 17, 2,6-difluoro-N-(5-(4-methyl-1-(4-(pyridin-3-yl)thiazol-2-yl)-1,2,5,6-tetrahydropyridin-3-yl)pyrazin-2-yl)benzamide], the IC50 (Homo sapiens, Jurkat, activity class) is 50 to 100 nM.
Molecule `CC1=C(c2cnc(NC(=O)c3c(F)cc(Br)cc3F)cn2)CN(c2ncccc2F)CC1` [Compound 44, 4-bromo-2,6-difluoro-N-(5-(1-(3-fluoropyridin-2-yl)-4-methyl-1,2,5,6-tetrahydropyridin-3-yl)pyrazin-2-yl) benzamide] came in with an IC50 under setting [1] of 31 nM.
`O=C(Nc1ccc(C2=C(Cl)CCN(c3nccs3)C2)cc1)c1c(F)cccc1F` [Compound 32, N-(4-(4-chloro-1-(thiazol-2-yl)-1,2,5,6-tetrahydropyridin-3-yl)phenyl)-2,6-difluorobenzamide hydrochloride] yielded an IC50 (numeric values, hydrochloride) of 21 nM.
Molecule `CCn1nnc(N2CCC(C)=C(c3cnc(NC(=O)c4c(F)cccc4Cl)cn3)C2)n1` [Compound 18, 2-chloro-N-(5-(1-(2-ethyl-2H-tetrazol-5-yl)-4-methyl-1,2,5,6-tetrahydropyridin-3-yl)pyrazin-2-yl)-6-fluorobenzamide] had a half-maximal inhibitory concentration (IC50) under setting [1] of 32 nM.
Same read-out and setting: to `CC1=C(c2cnc(NC(=O)c3cccc(F)c3C)cn2)CN(c2ncccc2F)CC1` [Compound 42, 3-fluoro-N-(5-(1-(3-fluoropyridin-2-yl)-4-methyl-1,2,5,6-tetrahydropyridin-3-yl)pyrazin-2-yl)-2-methylbenzamide] belongs 28 nM.
As for `CC1=C(c2ccc(NC(=O)c3c(C)cccc3Cl)cc2)CN(c2nnn(C)n2)CC1` [Compound 57, 2-chloro-6-methyl-N-(4-(4-methyl-1-(2-methyl-2H-tetrazol-5-yl)-1,2,5,6-tetrahydropyridin-3-yl)phenyl) benzamide], under setting [1], the half-inhibitory concentration (IC50) turned out to be 41 nM.
Consider `CC1=C(c2ccc(NC(=O)c3ccccc3Cl)cc2)CN(c2nnn(C)n2)CC1` [Compound 25, 2-chloro-N-(4-(4-methyl-1-(2-methyl-2H-tetrazol-5-yl)-1,2,5,6-tetrahydropyridin-3-yl)phenyl)benzamide], for which the IC50 under setting [1] was 17 nM.
`CC1=C(c2ccc(NC(=O)c3cccc(F)c3Cl)cc2)CN(c2nnn(C)n2)CC1` [Compound 29, 2-chloro-3-fluoro-N-(4-(4-methyl-1-(2-methyl-2H-tetrazol-5-yl)-1,2,5,6-tetrahydropyridin-3-yl)phenyl) benzamide] registered an IC50 under setting [1] of 20 nM.
Turning to `CC1=C(c2cnc(NC(=O)c3c(F)cccc3F)cn2)CN(c2ncccc2C#N)CC1` [Compound 10, N-(5-(1-(3-cyanopyridin-2-yl)-4-methyl-1,2,5,6-tetrahydropyridin-3-yl)pyrazin-2-yl)-2,6-difluorobenzamide], the midpoint of inhibition under setting [1], the IC50, lay at 18 nM.
Molecule `CC1=C(c2ccc(NC(=O)c3sccc3C)cc2)CN(c2nccs2)CC1` [Compound 39, 3-methyl-N-(4-(4-methyl-1-(thiazol-2-yl)-1,2,5,6-tetrahydropyridin-3-yl)phenyl)thiophene-2-carboxamide] displayed a half-inhibitory concentration (IC50) under setting [1] of 27 nM.
